# Data published in patent publication US10947188B2, “Small molecule ferroptosis inducers” (THE TRUSTEES OF COLUMBIA UNIVERSITY IN THE CITY OF NEW YORK, priority 2016, dated 2021).
# Columns and labels:
# BJeLR = test: Modulatory profiling: Alamar Blue viability, lethal compound cotreated with death modulator (EC50, AUC); assay type: cell-based, human; set-up: AUC, modulator BJ.Gd3+ / AUC, modulator BJ.LNAME / AUC, modulator BJ.Lmin / AUC, modulator BJ.3MA / AUC, modulator BJ.ALLN / AUC, modulator BJ.Boc D / AUC, modulator BJ.CHX / AUC, modulator BJ.Co2+ / AUC, modulator BJ.Nec-1 / AUC, modulator BJ.Pepstatin / AUC, modulator BJ.TLCK / AUC, modulator BJ.atoc / AUC, modulator BJ.trolox / AUC, modulator BJ.zVAD: unit not given beside the values; conditions: BJeLR cells, modulatory profile value (AUC); for AUC, modulator BJ.3MA: lethal compound cotreated with modulator 3MA; for AUC, modulator BJ.ALLN: lethal compound cotreated with modulator ALLN; for AUC, modulator BJ.Boc D: lethal compound cotreated with modulator Boc D; for AUC, modulator BJ.CHX: lethal compound cotreated with modulator CHX; for AUC, modulator BJ.Co2+: lethal compound cotreated with modulator Co2+; for AUC, modulator BJ.DPQ: lethal compound cotreated with modulator DPQ; for AUC, modulator BJ.Gd3+: lethal compound cotreated with modulator Gd3+; for AUC, modulator BJ.LNAME: lethal compound cotreated with modulator LNAME; for AUC, modulator BJ.Lmin/NAD+: lethal compound cotreated with modulator Lmin/NAD+; for AUC, modulator BJ.Lmin: lethal compound cotreated with modulator Lmin; for AUC, modulator BJ.NAD+: lethal compound cotreated with modulator NAD+; for AUC, modulator BJ.NMMA: lethal compound cotreated with modulator NMMA; for AUC, modulator BJ.Nec-1: lethal compound cotreated with modulator Nec-1; for AUC, modulator BJ.Pepstatin: lethal compound cotreated with modulator Pepstatin; for AUC, modulator BJ.TLCK: lethal compound cotreated with modulator TLCK; on AUC, modulator BJ.3MA: reference of the scale not given here; on AUC, modulator BJ.ALLN: reference of the scale not given here; on AUC, modulator BJ.Boc D: reference of the scale not given here; on AUC, modulator BJ.CHX: reference of the scale not given here; on AUC, modulator BJ.Co2+: reference of the scale not given here; on AUC, modulator BJ.DPQ: reference of the scale not given here; on AUC, modulator BJ.Gd3+: reference of the scale not given here; on AUC, modulator BJ.LNAME: reference of the scale not given here; on AUC, modulator BJ.NAD+: reference of the scale not given here; on AUC, modulator BJ.NMMA: reference of the scale not given here; on AUC, modulator BJ.Nec-1: reference of the scale not given here; on AUC, modulator BJ.Pepstatin: reference of the scale not given here; on AUC, modulator BJ.TLCK: reference of the scale not given here
# HT-1080 = test: as above; assay type: cell-based; set-up: AUC, modulator HT.3MA / AUC, modulator HT.ALLN / AUC HT.ATA / AUC HT.ActD / AUC HT.BHA / AUC HT.BHT / AUC HT.BocD / AUC HT.CHX / AUC HT.Co2+ / AUC HT.DPQ / AUC HT.EGTA / AUC HT.Lmim / AUC HT.NAD+ / AUC HT.Nec-1 / AUC HT.SP600125 / AUC HT.TLCK / AUC HT.U0126: unit not given beside the values; conditions: for AUC HT.ATA: HT-1080, modulator ATA; for AUC HT.ActD: HT-1080, modulator ActD; for AUC HT.BHA: HT-1080, modulator BHA; for AUC HT.BHT: HT-1080, modulator BHT; for AUC HT.BocD: HT-1080, modulator BocD; for AUC HT.CHX: HT-1080, modulator CHX; for AUC HT.Co2+: HT-1080, modulator Co2+; for AUC HT.CspA: HT-1080, modulator CspA; for AUC HT.DPQ: HT-1080, modulator DPQ; for AUC HT.EGTA: HT-1080, modulator EGTA; for AUC HT.Gd3+: HT-1080, modulator Gd3+; for AUC HT.LNAME: HT-1080, modulator LNAME; for AUC HT.Lmim: HT-1080, modulator Lmim; for AUC HT.NAD+: HT-1080, modulator NAD+; for AUC HT.NMMA: HT-1080, modulator NMMA; for HT.atoc (AUC) / HT.bCarotene (AUC) / HT.deferox (AUC) / HT.digoxin (AUC) / HT.trolox (AUC) / HT.zVAD (AUC): HT-1080; for HT.atoc (AUC): modulator atoc; for HT.bCarotene (AUC): modulator bCarotene; for HT.deferox (AUC): modulator deferox; for HT.digoxin (AUC): modulator digoxin; for HT.trolox (AUC): modulator trolox; for HT.zVAD (AUC): modulator zVAD; on AUC HT.BHA: reference of the scale not given here; on AUC HT.EGTA: reference of the scale not given here
smiles,measurement,setting,value
O=S1(=O)Nc2c(ccc3cccnc23)-c2ccccc21 [CIL67],"AUC, modulator BJ.3MA",BJeLR,0.02312
same,"AUC, modulator BJ.ALLN",BJeLR,0.02149
same,"AUC, modulator BJ.Boc D",BJeLR,0.00578
same,"AUC, modulator BJ.CHX",BJeLR,0.3083
same,"AUC, modulator BJ.Co2+",BJeLR,0.03708
same,"AUC, modulator BJ.DPQ",BJeLR,−0.005089
same,"AUC, modulator BJ.Gd3+",BJeLR,0.0143
same,"AUC, modulator BJ.LNAME",BJeLR,0.01177
same,"AUC, modulator BJ.Lmin/NAD+",BJeLR,0.1599
same,"AUC, modulator BJ.Lmin",BJeLR,−0.08787
same,"AUC, modulator BJ.NAD+",BJeLR,−0.07272
same,"AUC, modulator BJ.NMMA",BJeLR,−0.01601
same,"AUC, modulator BJ.Nec-1",BJeLR,−0.02018
same,"AUC, modulator BJ.Pepstatin",BJeLR,0.08703
same,"AUC, modulator BJ.TLCK",BJeLR,0.06141
same,AUC HT.ATA,HT-1080,0.08909
same,AUC HT.ActD,HT-1080,0.06498
same,AUC HT.BHA,HT-1080,−0.03558
same,AUC HT.BHT,HT-1080,−0.1041
same,AUC HT.BocD,HT-1080,−0.02378
same,AUC HT.CHX,HT-1080,0.1458
same,AUC HT.Co2+,HT-1080,0.03257
same,AUC HT.CspA,HT-1080,0.01638
same,AUC HT.DPQ,HT-1080,−0.01092
same,AUC HT.EGTA,HT-1080,0.1234
same,AUC HT.Gd3+,HT-1080,−0.01945
same,AUC HT.LNAME,HT-1080,−0.007515
same,AUC HT.Lmim,HT-1080,0.01912
same,AUC HT.NAD+,HT-1080,−0.01795
same,AUC HT.NMMA,HT-1080,−0.01349
same,HT.atoc (AUC),HT-1080,0.05006
same,HT.bCarotene (AUC),HT-1080,0.04657
same,HT.deferox (AUC),HT-1080,0.1176
same,HT.digoxin (AUC),HT-1080,−0.02175
same,HT.trolox (AUC),HT-1080,−0.05687
same,HT.zVAD (AUC),HT-1080,0.004996
CC1(C)CC(=O)C2=C(C1)OC1=C(C(=O)CC(C)(C)C1)C2c1ccc(O)cc1O [CIL62],"AUC, modulator BJ.3MA",BJeLR,0.009762
same,"AUC, modulator BJ.ALLN",BJeLR,−0.06265
same,"AUC, modulator BJ.Boc D",BJeLR,−0.008658
same,"AUC, modulator BJ.CHX",BJeLR,0.5162
same,"AUC, modulator BJ.Co2+",BJeLR,0.01574
same,"AUC, modulator BJ.DPQ",BJeLR,−0.005752
same,"AUC, modulator BJ.Gd3+",BJeLR,0.002946
same,"AUC, modulator BJ.LNAME",BJeLR,−0.02055
same,"AUC, modulator BJ.Lmin/NAD+",BJeLR,0.08736
same,"AUC, modulator BJ.Lmin",BJeLR,0.01862
same,"AUC, modulator BJ.NAD+",BJeLR,0.04149
same,"AUC, modulator BJ.NMMA",BJeLR,−0.05556
same,"AUC, modulator BJ.Nec-1",BJeLR,0.1929
same,"AUC, modulator BJ.Pepstatin",BJeLR,0.06831
same,"AUC, modulator BJ.TLCK",BJeLR,−0.03175
same,effect of necrostatin-1 on lethality,HT-1080; 19 μM Nec-1,suppressed by necrostatin-1
same,AUC HT.ATA,HT-1080,0.02941
same,AUC HT.ActD,HT-1080,−0.01143
same,AUC HT.BHA,HT-1080,−0.007393
same,AUC HT.BHT,HT-1080,−0.1437
same,AUC HT.BocD,HT-1080,0.002455
same,AUC HT.CHX,HT-1080,0.08707
same,AUC HT.Co2+,HT-1080,0.03422
same,AUC HT.CspA,HT-1080,−0.001347
same,AUC HT.DPQ,HT-1080,0.01017
same,AUC HT.EGTA,HT-1080,0.04611
same,AUC HT.Gd3+,HT-1080,−0.02573
same,AUC HT.LNAME,HT-1080,−0.003569
same,AUC HT.Lmim,HT-1080,0.008056
same,AUC HT.NAD+,HT-1080,−0.01689
same,AUC HT.NMMA,HT-1080,−0.01754
same,HT.atoc (AUC),HT-1080,0.08235
same,HT.bCarotene (AUC),HT-1080,0.02726
same,HT.deferox (AUC),HT-1080,0.1061
same,HT.digoxin (AUC),HT-1080,−0.02448
same,HT.trolox (AUC),HT-1080,−0.03123
same,HT.zVAD (AUC),HT-1080,−0.01794
CC(C)(C)C1CCc2c(sc(NC(=O)CN3CCNCC3)c2C(N)=O)C1 (centres unmarked) [CIL10],"AUC, modulator BJ.3MA",BJeLR,0.134
same,"AUC, modulator BJ.ALLN",BJeLR,−0.01713
same,"AUC, modulator BJ.Boc D",BJeLR,−0.05212
same,"AUC, modulator BJ.CHX",BJeLR,−0.01805
same,"AUC, modulator BJ.Co2+",BJeLR,0.1142
same,"AUC, modulator BJ.DPQ",BJeLR,−0.02695
same,"AUC, modulator BJ.Gd3+",BJeLR,0.007922
same,"AUC, modulator BJ.LNAME",BJeLR,0.01363
same,"AUC, modulator BJ.Lmin/NAD+",BJeLR,−0.01396
same,"AUC, modulator BJ.Lmin",BJeLR,−0.02341
same,"AUC, modulator BJ.NAD+",BJeLR,−0.001182
same,"AUC, modulator BJ.NMMA",BJeLR,0.006192
same,"AUC, modulator BJ.Nec-1",BJeLR,0.07272
same,"AUC, modulator BJ.Pepstatin",BJeLR,0.001044
same,"AUC, modulator BJ.TLCK",BJeLR,−0.05831
same,"AUC, modulator BJ.atoc",BJeLR; lethal compound cotreated with modulator atoc,0.0467
same,"AUC, modulator BJ.trolox",BJeLR; lethal compound cotreated with modulator trolox,0.05527
same,"AUC, modulator BJ.zVAD",BJeLR; lethal compound cotreated with modulator zVAD,−0.007333
same,AUC HT.ATA,HT-1080,0.01743
same,AUC HT.ActD,HT-1080,−0.01865
same,AUC HT.BHA,HT-1080,−0.02863
same,AUC HT.BHT,HT-1080,−0.08663
same,AUC HT.BocD,HT-1080,0.1385
same,AUC HT.CHX,HT-1080,0.05132
same,AUC HT.Co2+,HT-1080,0.1226
same,AUC HT.CspA,HT-1080,0.004872
same,AUC HT.DPQ,HT-1080,0.004305
same,AUC HT.EGTA,HT-1080,−0.007776
same,AUC HT.Gd3+,HT-1080,−0.02788
same,AUC HT.LNAME,HT-1080,0.02616
same,AUC HT.Lmim,HT-1080,−0.02065
same,AUC HT.NAD+,HT-1080,0.04087
same,AUC HT.NMMA,HT-1080,−0.009286
same,AUC HT.Nec-1,"HT-1080; HT-1080, modulator Nec-1",0.03698
same,AUC HT.Pepstatin,"HT-1080; HT-1080, modulator Pepstatin",−0.01087
same,AUC HT.SP600125,"HT-1080; HT-1080, modulator SP600125",−0.009227
same,AUC HT.TLCK,"HT-1080; HT-1080, modulator TLCK",−0.001631
same,AUC HT.U0126,"HT-1080; HT-1080, modulator U0126",0.01126
same,HT.atoc (AUC),HT-1080,0.1034
same,HT.bCarotene (AUC),HT-1080,−0.01201
same,HT.deferox (AUC),HT-1080,−0.004319
same,HT.digoxin (AUC),HT-1080,0.01443
same,HT.trolox (AUC),HT-1080,−0.006674
same,HT.zVAD (AUC),HT-1080,−0.01286
same,"AUC, modulator HT.3MA","HT-1080; HT-1080 cells, lethal compound cotreated with modulator 3MA, modulatory profile value (AUC)",−0.01982
same,"AUC, modulator HT.ALLN","HT-1080; HT-1080 cells, lethal compound cotreated with modulator ALLN, modulatory profile value (AUC)",0.1067
Cc1cc(C)c2c(=O)n(CC(=O)NCCCN3CCN(c4ccccc4F)CC3)sc2n1 [CIL50],"AUC, modulator BJ.3MA",BJeLR,−0.001613
same,"AUC, modulator BJ.ALLN",BJeLR,−0.008924
same,"AUC, modulator BJ.Boc D",BJeLR,0.03113
same,"AUC, modulator BJ.CHX",BJeLR,0.1415
same,"AUC, modulator BJ.Co2+",BJeLR,−0.0178
same,"AUC, modulator BJ.DPQ",BJeLR,−0.03869
same,"AUC, modulator BJ.Gd3+",BJeLR,−0.02113
same,"AUC, modulator BJ.LNAME",BJeLR,0.03227
same,"AUC, modulator BJ.Lmin/NAD+",BJeLR,0.01676
same,"AUC, modulator BJ.Lmin",BJeLR,0.03123
same,"AUC, modulator BJ.NAD+",BJeLR,−0.08482
same,"AUC, modulator BJ.NMMA",BJeLR,−0.004554
same,"AUC, modulator BJ.Nec-1",BJeLR,−0.05683
same,"AUC, modulator BJ.Pepstatin",BJeLR,0.003838
same,"AUC, modulator BJ.TLCK",BJeLR,−0.05225
same,AUC HT.ATA,HT-1080,0.06518
same,AUC HT.ActD,HT-1080,−0.00775
same,AUC HT.BHA,HT-1080,0.006655
same,AUC HT.BHT,HT-1080,−0.06029
same,AUC HT.BocD,HT-1080,0.004017
same,AUC HT.CHX,HT-1080,−0.04825
same,AUC HT.Co2+,HT-1080,−0.08688
same,AUC HT.CspA,HT-1080,−0.01271
same,AUC HT.DPQ,HT-1080,−0.01588
same,AUC HT.EGTA,HT-1080,−0.02244
same,AUC HT.Gd3+,HT-1080,−0.03877
same,AUC HT.LNAME,HT-1080,0.01806
same,AUC HT.Lmim,HT-1080,−0.00536
same,AUC HT.NAD+,HT-1080,0.009799
same,AUC HT.NMMA,HT-1080,0.004196
same,HT.atoc (AUC),HT-1080,0.06547
same,HT.bCarotene (AUC),HT-1080,0.01961
same,HT.deferox (AUC),HT-1080,−0.04084
same,HT.digoxin (AUC),HT-1080,0.02124
same,HT.trolox (AUC),HT-1080,−0.01565
same,HT.zVAD (AUC),HT-1080,0.02907
